Assay results published in patent US20210340524A1, “METHODS FOR IDENTIFYING CHIMERIC ANTIGEN RECEPTOR-TARGETING LIGANDS AND USES THEREOF” (Massachusetts Institute of Technology, priority 2020, published 2021).
Where a SMILES comes first, the peptide text is derived from it. Bridges are numbered along the chain shown (N, C = ends). Where no end group is shown, it is not given here. The star is where a group is joined. Biotin = O=C1N[C@H]2[C@H](CS[C@H]2CCCCC(=O)*)N1

How the values were obtained:
FMC63 IgG [1] = assay: ELISA of N-terminally biotinylated F12 variants on streptavidin plate, binding to FMC63 IgG; parameters: species or system murine; conditions: biotinylated peptides, read-out: Kd (nM), FMC63 binding affinity of F12 variants with N-terminal flanking residues
Source text: It was further evaluated if addition of flanking residues to the terminus of a FMC63-binding mimotope would increase its binding affinity to FMC63, e.g., by increasing the mimotope surface area available for engaging in protein-protein interactions with FMC63. […] Additional Ser-Gly residues (between 3 and 15 additional residues) were included to further extend the N-terminal flanking region.

FMC63 CAR T cells = assay: In vivo proliferation of FMC63 CAR T cells in inguinal lymph nodes (cell trace violet dilution); conditions: mice, s.c. tail base, 10 ug monovalent or 20 ug bivalent + 25 μg cyclic-di-GMP; inguinal LNs 48 hours post-vaccination
Description: CD45.1^+ donor FMC63 CAR T cells were prepared as described in Example 3 and labeled with cell trace violet according to manufacturer's protocol. 2×10^6 CAR T cells were administered into CD45.2^+ recipient mice via tail vein injection on Day 0. The following day, recipient mice were vaccinated by subcutaneous injection at the tail base with the following vaccine formulation: […]
(i) 10 ug of monovalent amph-mimotope (Amph-K-A1 or Amph-K-C2)+25 μg of cyclic-di-GMP in 1×PBS; or
(ii) 20 ug of amph-Bi-F12-mimotope (PEG4 or PEG8)+25 μg of cyclic-di-GMP in 1×PBS.
The volume of the formulation was 100 μL total, and the mice were administered 50 μL per each site of the tail base. Control mice received no vaccination. At 48 hours post-vaccination, recipient mice were euthanized and inguinal LNs were isolated for FACS analysis of CAR T proliferation.

FMC63 scFv [2] = assay: Dissociation kinetics of FMC63 scFv from yeast clones, flow cytometry; format: binding, murine; conditions: yeast clones labeled with FMC63 scFv, washed, incubated 0-72 hours
Description: The dissociation kinetics following binding of the mimotopes to FMC63 were also investigated. Briefly, yeast clone expressing F12 (SEQ ID NO: 18) or K-A1 (SEQ ID NO: 100) were incubated with labeled FMC63 scFv. The yeast were then washed, and incubated for 0-72 hours prior to analysis of the degree of FMC63 scFv labeling by flow cytometry. […] However, the yeast clone expressing K-A1 retained FMC63 even up to 72 hours, indicating slower dissociation kinetics compared to F12.

FMC63 IgG [3] = assay: Mimotope binding to FMC63 after DTT treatment of yeast, flow cytometry; parameters: species or system murine; conditions: DTT 0.01-10 mM, 30 minutes, room temperature
Description: To determine the formation of an intra-peptidyl disulfide bridge formed by the two Cys residues, mimotope expressing yeast were treated in reducing conditions and binding of the mimotope to FMC63 IgG was measured. […] Similarly, control cells expressing Aga2p (connected to the yeast surface by disulfide bridge) were treated with DTT. Following treatment, cells were labelled with biotinylated Aga2p or FMC63 and binding was measured by flow cytometry. At mild reducing conditions, Aga2p was maintained on the yeast surface while mimotope binding to FMC63 was abolished (FIG. 6). The inhibition of mimotope binding to FMC63 following treatment with a reducing agent reaffirms the formation of the disulfide bond and its importance for binding.
Target sequence in this assay (as listed by the source): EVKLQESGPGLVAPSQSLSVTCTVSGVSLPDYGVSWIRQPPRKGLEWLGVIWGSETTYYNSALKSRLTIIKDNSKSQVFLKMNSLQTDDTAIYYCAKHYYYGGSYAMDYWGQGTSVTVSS
Target sequence in this assay (as listed by the source): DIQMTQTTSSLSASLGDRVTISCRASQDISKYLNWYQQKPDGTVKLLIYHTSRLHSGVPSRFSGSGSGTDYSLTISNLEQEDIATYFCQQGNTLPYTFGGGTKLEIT

FMC63 scFv [4] = assay: Yeast clone binding to biotinylated FMC63 scFv monomer, Kd by FACS; parameters: species or system murine; conditions: yeast clones
Description: Identifying specific mimotope clones of varying affinities will provide flexibility in treatments. In order to validate specific sequences, clones were isolated and measured for their affinity to FMC63. Specifically, a subset of mimotope clones were selected from the fixed library sequence described in Example 5. […] Given the FDA-approved CAR is an scFV derived from the parental IgG, mimotope binding to FMC63-scFv monomer was tested using biotinylated FMC63 scFV to measure Kd by FACS (FIG. 10B). […] This screen positively identified mimotope clones with varying affinities to FMC63 which may be used for a tailored vaccine approach.

[5] = tested on: FMC63 anti-hCD19 CAR-T cells; assay: IFNγ secretion of FMC63 CAR-T cells co-cultured with amph-mimotope coated K562 cells (ELISA); format: cell-based; conditions: K562 cells coated with 10 μM amph-mimotope; E:T 10:1; 24 hours; compared to amphiphile only control
Description: To determine the effect of the CD19 amph-mimotope on chimeric antigen receptor (CAR) T cells, in vitro stimulation of CAR-T cells was assessed after co-culture with antigen presenting cells (APCs) providing the amph-mimotope (FIG. 8A). Specifically, K562 cells were pelleted at 1,000×g for 3 minutes and washed with PBS twice to remove residual protein. The cell pellet was then resuspended at 1×10^6 cells/mL in PBS containing amph-mimotope ([…]; SEQ ID NO: 5) at 10 μM and incubated at 37° C. for 30 minutes. The labeling reaction was stopped by pelleting cells and washing with PBS. To mimic antigen presenting cells in lymph nodes, K562 cells were decorated with amph-mimotope, and then co-cultured at an effector to target (E:T) ratio of 10:1 with FMC63 expressing CAR-T cells (hCD19-CAR; SEQ ID NO: 78) for 24 hours. […]

[6] = Micelle stability of lipid-oligonucleotide conjugates in the presence of serum (FBS); format: physicochemical; conditions: for micelle stability on increasing number of guanines: in the presence of serum
Source text: In certain embodiments, the linker is one or more guanines, for example between 1-10 guanines. It has been discovered that altering the number of guanines between a cargo such as a CpG oligonucleotide, and a lipid tail controls micelle stability in the presence of serum proteins. Therefore, the number of guanines in the linker can be selected based on the desired affinity of the conjugate for serum proteins such as albumin. When the cargo is a CpG immunostimulatory oligonucleotide and the lipid tail is a diacyl lipid, the number of guanines affects the ability of micelles formed in aqueous solution to dissociate in the presence of serum: 20% of the non-stabilized micelles (lipo-G0T10-CG) (SEQ ID NO: 138) were intact, while the remaining 80% were disrupted and bonded with FBS components.

FMC63 scFv, sequence (as listed by the source): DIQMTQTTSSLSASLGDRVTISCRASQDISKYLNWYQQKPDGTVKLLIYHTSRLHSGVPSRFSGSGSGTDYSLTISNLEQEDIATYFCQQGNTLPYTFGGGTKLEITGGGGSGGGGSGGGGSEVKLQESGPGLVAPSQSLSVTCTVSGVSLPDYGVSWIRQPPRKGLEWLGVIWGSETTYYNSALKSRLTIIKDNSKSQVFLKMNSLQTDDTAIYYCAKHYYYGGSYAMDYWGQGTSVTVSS

Which Kd (FMC63 IgG [1]) does the source give for CC[C@H](C)[C@H](NC(=O)[C@H](CCCNC(=N)N)NC(=O)[C@H](CO)NC(=O)[C@H](C)NC(=O)[C@H](CO)NC(=O)CNC(=O)CNC(=O)CNC(=O)CNC(=O)[C@H](CO)NC(=O)CNC(=O)CNC(=O)CCCC[C@@H]1SC[C@@H]2NC(=O)N[C@@H]21)C(=O)N[C@H]1CSSC[C@@H](C(=O)N[C@@H](CCCCN)C(=O)N[C@@H](CCC(=O)O)C(=O)N[C@@H](CC(C)C)C(=O)O)NC(=O)[C@H](CC(N)=O)NC(=O)[C@H](Cc2c[nH]c3ccccc23)NC(=O)[C@@H]2CCCN2C1=O [SEQ ID NO: 97] (Biotin-GGSGGGGSASRICPWNCKEL-OH; disulfide 13-17) here?
Its Kd is 0.139 nM.

With CC[C@H](C)[C@H](NC(=O)[C@H](CCCNC(=N)N)NC(=O)[C@H](CO)NC(=O)[C@H](C)NC(=O)[C@H](CO)NC(=O)CNC(=O)CNC(=O)CNC(=O)CNC(=O)[C@H](CO)NC(=O)CNC(=O)CNC(=O)CNC(=O)CNC(=O)[C@H](CO)NC(=O)CNC(=O)CCCC[C@@H]1SC[C@@H]2NC(=O)N[C@@H]21)C(=O)N[C@H]1CSSC[C@@H](C(=O)N[C@@H](CCCCN)C(=O)N[C@@H](CCC(=O)O)C(=O)N[C@@H](CC(C)C)C(=O)O)NC(=O)[C@H](CC(N)=O)NC(=O)[C@H](Cc2c[nH]c3ccccc23)NC(=O)[C@@H]2CCCN2C1=O [SEQ ID NO: 98] (Biotin-GSGGGGSGGGGSASRICPWNCKEL-OH; disulfide 17-21) as the compound, how does the Kd (FMC63 IgG [1]) read?
Its Kd is 0.134 nM.

Which Kd (FMC63 IgG [1]) does the source give for CC[C@H](C)[C@H](NC(=O)[C@H](CCCNC(=N)N)NC(=O)[C@H](CO)NC(=O)[C@H](C)NC(=O)[C@H](CO)NC(=O)CNC(=O)CNC(=O)CNC(=O)CNC(=O)[C@H](CO)NC(=O)CNC(=O)CNC(=O)CNC(=O)CNC(=O)[C@H](CO)NC(=O)CNC(=O)CNC(=O)CNC(=O)CNC(=O)CCCC[C@@H]1SC[C@@H]2NC(=O)N[C@@H]21)C(=O)N[C@H]1CSSC[C@@H](C(=O)N[C@@H](CCCCN)C(=O)N[C@@H](CCC(=O)O)C(=O)N[C@@H](CC(C)C)C(=O)O)NC(=O)[C@H](CC(N)=O)NC(=O)[C@H](Cc2c[nH]c3ccccc23)NC(=O)[C@@H]2CCCN2C1=O [SEQ ID NO: 99] (Biotin-GGGGSGGGGSGGGGSASRICPWNCKEL-OH; disulfide 20-24) here?
The Kd was 0.153 nM.

With “Amph-K-C2: monovalent amph-mimotope: mimotope SEQ ID NO: 129 conjugated to DSPE-PEG2k (GGGSASRICPWNCKELPSPPRIFGNR; not fully specified; DSPE-PEG2k conjugate; Synthetic: Mimotope of Amph-K-C2)” as the compound, how does the “proliferation of CAR T cells in vivo measured by cell violet dilution” value (FMC63 CAR T cells) read?
Its value is “observed”.

Which “time of retention of FMC63 scFv labeling after wash” value (FMC63 scFv [2]) does the source give for PRKHSGRICPWNCKELDNPPFIFGNR [K-A1] here?
The value was no less than 72 h.

For RHCPWNCSLL [Clone A1], which “mimotope binding to FMC63 after DTT treatment” value (FMC63 IgG [3]) is on record?
The value was “abolished”.

With RICPWNCKEL [Clone F12] as the compound, how does the “time of retention of FMC63 scFv labeling after wash” value (FMC63 scFv [2]) read?
Its value is no more than 0.5 h.

Which Kd (FMC63 scFv [4]) does the source give for RICPWSCMVV [Clone B7] here?
Its Kd is greater than 1000 nM.

With RMCPWSCRPH [Clone A8] as the compound, how does the Kd (FMC63 scFv [4]) read?
The Kd was greater than 1000 nM.

Which “activation of CAR-T cells measured by IFNγ secretion” value [5] does the source give for “amph-mimotope: DSPE-PEG2000 conjugated onto the N-terminus of synthesized cyclic mimotope RHCPWNCSLL (SEQ ID NO: 5) (disulfide 3-7 (inferred); not fully specified (N-terminus))” here?
Its value is “significantly activated”.

For “lipo-G0T10-CG: diacyl lipid tail, G0T10 linker, CpG immunostimulatory oligonucleotide; non-stabilized micelles (DNA TTTTTTTTTTCG; diacyl lipid tail conjugated, backbone chemistry not given here)”, which “percentage of micelles disrupted and bonded with FBS components” value ([6]; in the presence of serum (FBS)) is on record?
Its value is 80%.

Which “micelle stability on increasing number of guanines” value [6] does the source give for “lipo-G8T2-CG: diacyl lipid tail, G8T2 linker, CpG immunostimulatory oligonucleotide (DNA GGGGGGGGTTCG; diacyl lipid tail conjugated, backbone chemistry not given here)” here?
Its value is “did not further enhance micelle stability”.

Which “micelle stability on increasing number of guanines” value [6] does the source give for “lipo-G10T0-CG: diacyl lipid tail, G10T0 linker, CpG immunostimulatory oligonucleotide (DNA GGGGGGGGGGCG; diacyl lipid tail conjugated, backbone chemistry not given here)” here?
Its value is “did not further enhance micelle stability”.
